Like-named read-outs stand apart in the source and are kept apart here.
How the values were obtained:
PANC-1 cells [1] = assay: 72 h MTT cytotoxicity, PANC-1; assay type: cell-based, human
Experimental: (§1) Cytotoxicity. Tumor cells were cultured overnight after inoculation in RPMI-1640 medium or DMEM supplemented with 10% FBS. All cultures were maintained in an incubator in a highly humidified atmosphere of 95% air with 5% CO2 at 37 °C. Growth inhibition was measured with an MTT assay. Briefly, 2800–7000 cells per well in culture medium (100 μL) were plated in 96-well plates (Corning). The cells were treated in triplicate with different concentrations of complexes at 37 ℃ for 72 h. Stock solutions of CDDP and oxoplatin were prepared in PBS, while stock solutions of conjugates I and II and the ligand MSA-2 were prepared in DMSO. The stock solutions were diluted in complete medium (DMSO < 0.5%). An aliquot of MTT solution (40 μL, 2.5 mg·mL^–1) in PBS buffer was added to each well and incubated for 4 h. The supernatant was removed and DMSO (150 μL) was added to solubilize the formazan crystals. The amount of formazan was determined using a microplate reader at 570 nm after the plates were shaken for 30 min. The optical density (OD) was used to calculate the percentage of viable cells relative to untreated control values. Background readings for MTT incubated in cell-free medium were subtracted from each value before calculation. […] The mean IC50 values were calculated using data from three replicates.

HK-2 cells = assay: 72 h MTT cytotoxicity, HK-2; assay type: cell-based
Experimental: as §1

MCF-7 cells = assay: 72 h MTT cytotoxicity, MCF-7; assay type: cell-based, human
Experimental: as §1

Caov3 cells = assay: 72 h MTT cytotoxicity, Caov3; assay type: cell-based, human
Experimental: as §1

Pan02 cells = assay: 72 h MTT cytotoxicity, Pan02; assay type: cell-based, mouse
Experimental: as §1

[2] = test system: BMDCs cultured with Pan02 cell CM; assay: IFN-β ELISA of BMDCs incubated with conditioned medium of drug-treated Pan02 cells; assay type: cell-based, mouse; conditions: Pan02 treated 48 h at 5 μM (Pt-E-I 20 μM); BMDCs 50% CM, 18 h
Experimental: (§2) ELISA. Bone marrow-derived dendritic cells (BMDCs) were prepared according to the following method. Briefly, femurs and tibias were removed from 4-6 week-old C57BL/6 mice, and the bone marrow cells were isolated. The bone marrow cells were incubated in T cell medium [RPMI-1640 medium (with GlutaMAX), supplemented with 10% FBS, 1% HEPES, 1% NEAA, 1% sodium pyruvate, and 0.1% βME] containing 20 ng/mL GM-CSF for 6 days after erythrocyte lysis, during which time half of the medium was replaced with fresh T cell medium once and the cytokines were supplemented. Then, the BMDCs were harvested on day 7 for further study.
Pan02 tumor cells were treated with various drugs at a concentration of 5 μM for 48 h, and then the drug-pretreated tumor cell supernatant was obtained by centrifugation at a speed of 12000 rpm/min for 5 min and used as conditioned media (CM) subsequently.
(§3) BMDCs were cultured with 50% CM plus 50% fresh medium for 18 h. In addition, BMDCs were cultured with fresh medium containing different complexes or mixtures (15 μM CDDP and I, a mixture of I and 8 equiv. AsA, and equal AsA). Then, all the BMDC supernatant was collected and centrifuged for subsequent cytokine analysis using ELISA kits, which were performed according to the manufacturer’s instructions.

BxPC3 cells = assay: 72 h MTT cytotoxicity, BxPC3; assay type: cell-based, human
Experimental: as §1

STING pathway in BMDCs = assay: IFN-β and IL-6 ELISA in supernatants of BMDCs treated with complexes; assay type: cell-based, mouse; conditions: 18 h, ELISA, 15 μM
Experimental: as §2, §3

[3] = test system: cancer cell lines (MCF-7, Caov3, PANC-1, BxPC3, Pan02); assay: 72 h MTT cytotoxicity, panel of cancer cell lines; assay type: cell-based; conditions: read-out: IC50 in these cancer cell lines
Experimental: as §1

PANC-1 cells [4] = assay: cellular uptake of Pt by ICP-MS, PANC-1; assay type: cell-based, human; conditions: PANC-1 cells, 6 h incubation, ICP-MS
Experimental: Cellular uptake. All incubations were carried out in the dark. After the designated incubation period, the medium was removed, and the cells were harvested with trypsin and rinsed twice with PBS (1×, 20 mM, pH 7.4), followed by digestion and ICP-MS.
Cancer cells were seeded in a 6-well plate at a density of 5×10^5 cells per well. After incubation for 24 h, the cells were treated with each complex for 6 h.
Cancer cells preincubated with metabolic inhibitor (MIs) were also evaluated. These cells were preincubated with 2-deoxy-D-glucose and oligomycin (50 mM and 5 μM, respectively, 1 h) or NH4Cl (50 mM, 1 h) at 37 ℃ followed by incubation with DMEM containing CDDP, I or II at 37 ℃ for 6 h.
Digestion. Cell pellets were collected by centrifugation and then digested with nitric acid (100 µL) for 2 h at 95 °C, followed by the addition of H2O2 (50 µL) at 95 °C for 0.5 h. HCl (100 µL) was added and kept at 95 °C until the total volume was less than 20 μL. Water was then added to dilute the solution to 1 mL, and the final Pt content was determined by ICP-MS.

Pan02 tumors = assay: in vivo antitumor activity, C57BL/6 mice bearing Pan02 tumors; set-up: species or system mouse; conditions: C57BL/6 mice, Pan02 tumors, 10.0 μmol/kg every 2 days for 16 days, intravenous
Experimental: In vivo antitumor activity. Female C57BL/6 mice (6–8 weeks old) were subcutaneously implanted with pan02 cells (2 × 10^6) in the right flank. Once the tumor volume reached approximately 60 mm^3, the mice were assigned to 4 groups at random (n = 5–8) and received treatment with PBS, CDDP (10.0 μmol/kg), I (10.0 μmol/kg), or a mixture of CDDP (10.0 μmol/kg) and MSA-2 (10.0 μmol/kg). The mice received 9 treatments. Changes in body weight and tumor volume were recorded. All the experimental procedures utilizing mice were performed in accordance with the Guidelines for Care and Use of Laboratory Animals of Nanjing University and experiments were approved by the Institutional Animal Care and Use Committee of Nanjing University (IACUC-2101001, SL-019-00).

[5] = H&E histology of major organs after treatment; assay type: in vivo, mouse; conditions: C57BL/6 mice after treatment, 10.0 μmol/kg
Experimental: Hematoxylin and eosin staining. Tissue samples were subjected to histopathological examination using hematoxylin and eosin (H&E) staining. Mouse organs (heart, liver, spleen, lungs and kidneys) were collected in 4% paraformaldehyde for proper fixation and then embedded in paraffin using a tissue embedding machine. Sections were prepared in an orderly manner by dewaxing, dehydration, and H&E staining. The tissue morphology was observed under a fluorescence microscope (Olympus BX41, Japan).

[6] = reduction by ascorbic acid (AsA) followed by 1H-/195Pt-NMR; assay type: physicochemical; conditions: 20 mM, 8 equiv. AsA, 5:1 d6-DMSO:D2O, 37 °C, dark
Experimental: Reduction of I and II. Samples were prepared by reacting I or II (20 mM) with 8 equiv. AsA in 5:1 d6-DMSO:D2O solutions. The time course of the reaction was monitored by ^1H-NMR and ^195Pt-NMR after incubation of the samples were incubated at 37 °C for 0, 3, 6, 12, 24, 36, 48, 60, 72, 84, 96, or 120 h in the dark.

[7] = octanol-water partition coefficient, shake-flask, ICP-MS; assay type: physicochemical; conditions: n-octanol / phosphate buffer 10 mM pH 7.4, room temperature
Experimental: Lipid-water partition coefficient. The shake-flask method was used to measure the partition coefficients of CDDP, I and II. Briefly, a mixture containing equal volumes of n-octanol and phosphate buffer (10 mM, pH 7.4) was shaken on a mechanical shaker at room temperature for 24 h. Complexes (10 mM) in phosphate buffer (presaturated with n-octanol) were mixed with an equal volume of n-octanol (presaturated with phosphate buffer), and the mixture was shaken for 24 h at room temperature. Centrifugation was carried out at 2500 rpm for 30 min to separate the two phases. The aqueous layer was carefully separated, and the Pt content in the initial and final aqueous phases was analyzed by inductively coupled plasma mass spectrometry (ICP-MS). The log PO/W was measured using the following equation: log PO/W = log [(Ptinitial ‒ Ptfinal)/Ptfinal].

SMILES	IFN-β secretion by BMDCs incubated with treated Pan02 cell CM [2]	IC50 (PANC-1 cells [1]) [µM]	IC50 (HK-2 cells; human normal kidney cell line) [µM]	IC50 (MCF-7 cells) [µM]	IC50 (Caov3 cells) [µM]	IC50 (Pan02 cells) [µM]	IC50 (BxPC3 cells) [µM]	cellular Pt content (PANC-1 cells [4]) [ng Pt/mg protein]	also measured
COc1cc2cc(C(=O)CCC(=O)O)sc2cc1OC [MSA-2]	moderate								IC50 (PANC-1 cells [1]; Homo sapiens, PANC-1): > 50 µM; IC50 (HK-2 cells; HK-2, human normal kidney cell line): > 50 µM; IC50 (MCF-7 cells; Homo sapiens, MCF7): > 50 µM; IC50 (Caov3 cells; Homo sapiens, Caov-3): > 50 µM; IC50 (Pan02 cells; Mus musculus, Pan02): > 50 µM; IC50 (BxPC3 cells; Homo sapiens, BXPC-3): > 50 µM; IFN-β secretion by BMDCs (STING pathway in BMDCs): robust; IL-6 secretion by BMDCs (STING pathway in BMDCs): robust; IC50 [3]: > 50 µM
N.N.[Cl-].[Cl-].[OH-].[OH-].[Pt+4] [Oxoplatin, Cis-diamminedichloro-trans-dihydroxyplatinum]		> 50	38.7 ± 4.1	8.2 ± 0.7	> 50	> 50	> 50		
[NH2][Pt]([NH2])([Cl])[Cl] [CDDP, cisplatin]	slightly increased	11.1 ± 1.3	8.2 ± 0.5	5.4 ± 0.3	26.8 ± 2.2	8.3 ± 0.6	1.6 ± 0.1	1.7	tumor volume (Pan02 tumors): 200.2 ± 20.6 mm^3; histological findings in major organs [5]: substantial blood cell stasis in the liver blood sinuses and thickening of the alveolar wall as well as large infiltrates of inflammatory cells in the trachea and bronchus
COc1cc2cc(C(=O)CCC(=O)[O][Pt]([NH2])([NH2])([Cl])([Cl])[O]C(=O)CCC(=O)c3cc4cc(OC)c(OC)cc4s3)sc2cc1OC [conjugate II]		6.9 ± 0.9	3.6 ± 1.2	> 64	5.3 ± 0.4	8.4 ± 0.7	4.9 ± 0.8	2.3	time at which reduction by AsA finished [6]: 120 h; octanol-water partition coefficient (logPo/w) [7]: 2.1

Reference: PMC10852989, “Combining cisplatin and a STING agonist into one molecule for metalloimmunotherapy of cancer” (National Science Review, 2024)
